Reference: ChEMBL document CHEMBL1123140, “Acylamino boronic acids and difluoroborane analogues of amino acids: potent inhibitors of chymotrypsin and elastase” (J Med Chem, 1985)

Biological target: not listed separately
Experiment: Competitive inhibition of porcine elastase by the compound was evaluated
Design: species or system Sus scrofa

In order of rising Ki:
1. CC[C@H](C)[C@H](NC(=O)C(C)NC(=O)OCc1ccccc1)B(F)F (stereo not given in full)  100 nM
2. CC[C@H](C)[C@H](NC(=O)C(C)NC(=O)OCc1ccccc1)B(O)O (stereo not given in full)  120 nM
3. CC(NC(=O)OCc1ccccc1)C(=O)N[C@H](B(F)F)C(C)C (stereo not given in full)  1000 nM
4. CC(NC(=O)OCc1ccccc1)C(=O)N[C@H](B(O)O)C(C)C (stereo not given in full)  1100 nM
5. CC(NC(=O)OCc1ccccc1)C(=O)N[C@@H](C)B(F)F (stereo not given in full)  34500 nM

Biological target: Chymotrypsinogen B (Homo sapiens, UniProt P17538)
Sequence (P17538 34-164 limits assumed, other chains not shown): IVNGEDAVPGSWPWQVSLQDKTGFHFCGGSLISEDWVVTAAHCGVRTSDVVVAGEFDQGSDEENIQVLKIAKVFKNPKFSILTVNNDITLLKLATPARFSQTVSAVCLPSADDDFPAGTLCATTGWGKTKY
Sequence (P17538 167-263 limits assumed, other chains not shown): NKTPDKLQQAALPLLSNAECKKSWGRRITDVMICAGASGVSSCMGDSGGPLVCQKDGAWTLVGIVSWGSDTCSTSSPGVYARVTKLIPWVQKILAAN
Experiment: Competitive inhibition of alpha-chymotrypsin

In order of rising Ki:
1. O=C(N[C@@H](Cc1ccccc1)B(F)F)c1ccccc1  270 nM
2. O=C(N[C@@H](Cc1ccccc1)B(O)O)c1ccccc1  360 nM
3. O=C(NC(Cc1ccccc1)B(F)F)c1ccccc1 (stereo not given)  650 nM
4. O=C(NC(Cc1ccccc1)B(O)O)c1ccccc1 (stereo not given)  650 nM
5. CC(=O)N[C@@H](Cc1ccccc1)B(F)F  1700 nM
6. CC(NC(=O)OCc1ccccc1)C(=O)NC(B(F)F)c1ccccc1 (stereo not given)  2000 nM
7. CC(=O)N[C@@H](Cc1ccccc1)B(O)O  2100 nM
8. O=C(NC(B(F)F)c1ccccc1)c1ccccc1 (stereo not given)  5000 nM
9. CC(=O)NC(Cc1ccccc1)B(O)O (stereo not given)  6500 nM
10. CC(=O)NC(Cc1ccccc1)B(F)F (stereo not given)  7400 nM
